Common to all, as to assay type: in vivo
The test system of test [1] is Lolium perenne (LOLPE). The test is described as follows: Post-emergence herbicidal activity, glasshouse pot test. As to conditions: Lolium perenne, 312 h, rate 250 g/ha, evaluated after 13 days, glasshouse, read-out: Post-emergence activity LOLPE (100=total damage to plant; 0=no damage to plant). The gist of the method: (§1)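 Glasshouse pots, standard soil; spray at day 1 (pre) or day 8 (post) after sowing; a.i. in acetone/water 50:50 + 0.5% Tween 20, diluted aqueous. 24/16° C, 14 h light, 65% RH. Visual damage at 13 days: 0 = none, 100 = total.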

In test [2] the test system is Avena fatua (AVEFA). Described as above. As to conditions: Avena fatua, 312 h, rate 250 g/ha, evaluated after 13 days, glasshouse, read-out: Post-emergence activity AVEFA (100=total damage to plant; 0=no damage to plant). The gist of the method:
as §1

The test system of test [3] is Echinochloa crus-galli (ECHCG). The description is as above. To be noted: Echinochloa crus-galli, 312 h, rate 250 g/ha, evaluated after 13 days, glasshouse, read-out: Post-emergence activity ECHCG (100=total damage to plant; 0=no damage to plant). The procedure, abridged:
as §1

Test [4] relates to Alopecurus myosuroides (ALOMY). The description is as above. To be noted: Alopecurus myosuroides, 312 h, rate 250 g/ha, evaluated after 13 days, glasshouse, read-out: Post-emergence activity ALOMY (100=total damage to plant; 0=no damage to plant). The procedure, abridged:
as §1

For test [5], the system named is Lolium perenne (LOLPE). The test is described as follows: Pre-emergence herbicidal activity, glasshouse pot test. To be noted: Lolium perenne, 312 h; Rate 250 g/ha; pre-emergence spray; evaluated after 13 days; read-out: Pre-emergence activity LOLPE (100=total damage to plant; 0=no damage to plant). The gist of the method:
as §1

Test [6] deals with Avena fatua (AVEFA). The description is as above. As to conditions: Avena fatua, 312 h; Rate 250 g/ha; pre-emergence spray; evaluated after 13 days; read-out: Pre-emergence activity AVEFA (100=total damage to plant; 0=no damage to plant). The gist of the method: as §1
For test [7], the system named is Echinochloa crus-galli (ECHCG). The description is as above. As to conditions: Echinochloa crus-galli, 312 h; Rate 250 g/ha; pre-emergence spray; evaluated after 13 days; read-out: Pre-emergence activity ECHCG (100=total damage to plant; 0=no damage to plant). The gist of the method:
as §1

For test [8], the system named is Alopecurus myosuroides (ALOMY). Described as above. As to conditions: Alopecurus myosuroides, 312 h; Rate 250 g/ha; pre-emergence spray; evaluated after 13 days; read-out: Pre-emergence activity ALOMY (100=total damage to plant; 0=no damage to plant). The procedure, abridged:
as §1

Our source for the pest or weed control values is patent publication US8865623B2, “Herbicidally active cyclic diones and derivatives thereof, processes for their preparation, compositions, and method of controlling weeds” (Syngenta Limited, priority 2009, dated 2014).

As for `CCc1ccc(Oc2ccc(C(F)(F)F)cn2)cc1C1=C(O)CC(C)(C)CC1=O` [Example A-83], the pest or weed control at 250 g/ha with Lolium perenne (LOLPE) [1] was found to be 60%; in the test on Avena fatua (AVEFA) [2], 100%; in test [3], 100%; in test [4] it was 90%; in the test with Lolium perenne (LOLPE) [5], 90%; in the test on Avena fatua (AVEFA) [6], 90%. Further, the results for the pest or weed control at 250 g/ha in test [7] and in test [8] were 100% and 70%, respectively.
For `CCc1ccc(Oc2ccc(Br)cc2)cc1C1=C(O)[C@H]2CC[C@H](C2)C1=O` (single isomer, unassigned) [Example A-91], the pest or weed control at 250 g/ha came to 80% in the test on Lolium perenne (LOLPE) [1]; 90% in the test on Avena fatua (AVEFA) [2]; 100% in test [3]; 90% in test [4]; 100% in the test on Lolium perenne (LOLPE) [5]; 70% with Avena fatua (AVEFA) [6]. The pest or weed control at 250 g/ha was 100% in test [7] and 80% in test [8].
Take `CCc1ccc(Oc2nc3ccc(OC)cc3s2)cc1C1=C(O)CC(C)(C)CC1=O` [Example A-300]: the pest or weed control at 250 g/ha in the test on Lolium perenne (LOLPE) [1] was 60%; in the test on Avena fatua (AVEFA) [2], 70%; in test [3] it was 100%; in test [4], 80%; in the test with Lolium perenne (LOLPE) [5] it was 100%; in the test with Avena fatua (AVEFA) [6], 0%. Besides, the pest or weed control at 250 g/ha in test [7] was determined as 100%; in test [8], 80%.
Consider `CCc1ccc(Oc2cnc3cc(F)ccc3n2)cc1C1=C(O)C(C)(C)OC(C)(C)C1=O` [Example A-172], for which the pest or weed control at 250 g/ha with Lolium perenne (LOLPE) [1] is 100%; with Avena fatua (AVEFA) [2] it was 100%; in test [3], 100%; in test [4] it was 100%; in the test with Lolium perenne (LOLPE) [5], 100%; with Avena fatua (AVEFA) [6] it was 60%. The pest or weed control at 250 g/ha in test [7] is 100%; in test [8] it was 90%.
Regarding `CCc1ccc(Oc2ccc([N+](=O)[O-])cc2C(F)(F)F)cc1C1=C(O)C(C)(C)OC(C)(C)C1=O` [Example A-198], the pest or weed control at 250 g/ha in the test on Lolium perenne (LOLPE) [1] is 70%; with Avena fatua (AVEFA) [2] it was 60%; in test [3], 100%; in test [4], 70%; with Lolium perenne (LOLPE) [5], 10%; in the test with Avena fatua (AVEFA) [6] it was 0%. Also, the pest or weed control at 250 g/ha in test [7] came to 60%; in test [8], 0%.
`CCc1ccc(Oc2cc(F)cc(F)c2C#N)cc1C1=C(O)C(C)(C)OC(C)(C)C1=O` [Example A-206]: the pest or weed control at 250 g/ha in the test on Lolium perenne (LOLPE) [1] was 50%; in the test with Avena fatua (AVEFA) [2] it was 30%; in test [3] it was 70%; in test [4], 20%; in the test on Lolium perenne (LOLPE) [5], 10%; in the test with Avena fatua (AVEFA) [6] it was 0%. Besides, the pest or weed control at 250 g/ha in test [7] stood at 30%; in test [8], 0%.
As for `CCc1ccc(Oc2ccc(C(F)(F)F)c(Cl)c2)cc1C1=C(O)CC(C)(C)CC1=O` [Example A-283], the pest or weed control at 250 g/ha in the test with Lolium perenne (LOLPE) [1] was 90%; with Avena fatua (AVEFA) [2], 90%; in test [3] it was 90%; in test [4] it was 80%; with Lolium perenne (LOLPE) [5] it was 60%; in the test on Avena fatua (AVEFA) [6], 10%. In addition, the pest or weed control at 250 g/ha in test [7] was 90%; in test [8], 70%.
As for `CCc1ccc(Oc2ccc(C(F)(F)F)c(C#N)c2)cc1C1=C(O)CC(C)(C)CC1=O` [Example A-295], the pest or weed control at 250 g/ha stood at 40% with Lolium perenne (LOLPE) [1]; 60% in the test with Avena fatua (AVEFA) [2]; 100% in test [3]; 80% in test [4]; 50% with Lolium perenne (LOLPE) [5]; 20% in the test with Avena fatua (AVEFA) [6]. In addition, the pest or weed control at 250 g/ha turned out to be 70% in test [7] and 50% in test [8].
